Reference: US6369109B1, “Betulinic acid and derivatives thereof useful for the treatment of neuroectodermal tumor” (Deutsches Krebsforschungszentrum Stiftung des Offentlichen …, priority 1998, dated 2002)

Tests used:
[1] = tested on: CD95-L mRNA in SH-EP neuroblastoma cells; assay: CD95-L mRNA expression by RT-PCR; format: cell-based, human; settings: 5 and 10 μg/ml betulinic acid; 0.5 μg/ml doxorubicin 24 h; FIG. 3A
Procedure: Total RNA was prepared using the Qiagen total RNA kit (Qiagen, Hilden, Germany). RNA was converted to cDNA by reverse transcription and amplified for 38 cycles by PCR in a thermocycler (Stratagene, Heidelberg, Germany) using the Gene Amplification RNA-PCR kit (Perkin-Elmer, Branchburg, N.J.) following the manufacturer's instructions. Primers used for amplification of the CD95-L fragment are according to the sequence of human CD95-L (Suda et al., 1995, Cell 75:1169-1178; Herr et al., 1996, Cell Death Diff., 5:299-305). Expression of β-actin (MWG-Biotech, Ebersberg, Germany) was used as an internal standard for RNA integrity and equal gel loading. PCR products were run at 60 V for 2 h on a 1.5% agarose gel stained with ethidium bromide and visualized by UV illumination.
SH-EP neuroblastoma cells were incubated with 5 and 10 μg/ml betulinic acid for the indicated times or with 0.5 μg/ml doxorubicin for 24 h. CD95-L mRNA expression was determined by RT-PCR. Expression of μ-actin was used to control RNA integrity and equal gel loading.

[2] = tested on: cytochrome c in SHEP cells; assay: Drug-induced release of cyt c from mitochondria in cells (Western blot); format: cell-based, human; settings: 0.5 μg/ml Doxo or 10 μg/ml Bet A; FIG. 16A
Procedure: Cells were lysed for 30 mm at 4° C. in PBS with 0.5% Triton X (Serva, Heidelberg, Germany) and 1 mM PMSF (Sigma, Deisenhofen, Germany) followed by high-speed centrifugation. Membrane proteins were eluted in buffer containing 0.1 M glycine, pH 3.0 and 1.5 M Tris, pH 8.8. Protein concentration was assayed using bicinchoninic acid (Pierce, Rockford, Ill.). 40 μg protein per lane was separated by 12% or 15% SDS-PAGE and electroblotted onto nitrocellulose (Amersham, Braunschweig, Germany). Equal protein loading was controlled by Ponceau red staining of membranes. […]
For isolation of mitochondria, cells (3×10^8 per sample) were washed twice with ice-cold PBS and resuspended with five volumes of buffer A (50 mM Tris buffer, 1 mM EGTA, 5 mM 2-mercaptoethanol, 0.2% BSA, 10 mM KH2PO4, pH 7.6, 0.4 M sucrose) and allowed to swell on ice for 20 min. […] The protein concentration of mitochondria or cytosolic extracts was determined by the Bradford method. […]

Structure (SMILES): COc1cccc2c1C(=O)c1c(O)c3c(c(O)c1C2=O)C[C@@](O)(C(=O)CO)C[C@@H]3O[C@H]1C[C@H](N)[C@H](O)[C@H](C)O1 [doxorubicin]
- CD95-L mRNA induction [1]: strongly up-regulated CD95-L mRNA
- mitochondrial cytochrome c levels after stimulation [2]: mitochondrial cytochrome c levels declined
